The target of one test is T1, human CaSR (Homo sapiens, UniProt P41180).
T1 construct: a human CaSR open reading frame (ORF) was contained in the pcDNA3.1/Zeo(+) vector; expressed in transfected cells
T1 sequence (P41180 20-1078): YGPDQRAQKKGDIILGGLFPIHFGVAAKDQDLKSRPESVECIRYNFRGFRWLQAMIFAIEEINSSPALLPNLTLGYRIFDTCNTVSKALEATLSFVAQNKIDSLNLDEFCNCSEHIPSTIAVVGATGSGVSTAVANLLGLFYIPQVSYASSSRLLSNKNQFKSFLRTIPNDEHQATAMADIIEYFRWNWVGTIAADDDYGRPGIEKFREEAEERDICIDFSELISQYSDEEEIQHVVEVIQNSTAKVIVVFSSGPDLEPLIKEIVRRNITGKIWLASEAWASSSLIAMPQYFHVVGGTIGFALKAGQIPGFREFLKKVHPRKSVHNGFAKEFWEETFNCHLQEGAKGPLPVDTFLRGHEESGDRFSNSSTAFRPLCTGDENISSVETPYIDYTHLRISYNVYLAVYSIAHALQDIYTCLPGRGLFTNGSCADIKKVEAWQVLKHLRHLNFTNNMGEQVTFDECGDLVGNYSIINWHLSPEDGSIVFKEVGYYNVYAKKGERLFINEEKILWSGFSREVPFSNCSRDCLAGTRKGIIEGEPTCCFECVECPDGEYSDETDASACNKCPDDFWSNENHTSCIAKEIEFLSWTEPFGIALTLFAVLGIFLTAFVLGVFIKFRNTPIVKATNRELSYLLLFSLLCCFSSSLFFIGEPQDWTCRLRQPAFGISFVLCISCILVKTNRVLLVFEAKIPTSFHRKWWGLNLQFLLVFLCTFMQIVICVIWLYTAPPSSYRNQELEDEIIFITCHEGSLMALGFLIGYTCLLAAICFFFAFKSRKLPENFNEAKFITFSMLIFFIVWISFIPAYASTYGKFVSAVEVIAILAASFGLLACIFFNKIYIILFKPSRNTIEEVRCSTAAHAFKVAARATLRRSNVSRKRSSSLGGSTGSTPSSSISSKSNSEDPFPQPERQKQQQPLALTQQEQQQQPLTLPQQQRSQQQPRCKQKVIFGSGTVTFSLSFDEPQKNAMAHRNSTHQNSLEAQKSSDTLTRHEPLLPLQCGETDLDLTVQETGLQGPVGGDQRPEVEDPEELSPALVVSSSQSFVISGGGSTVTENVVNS
In words: Human calcium sensing receptor (CaSR) agonism test (Fluo-3 / FLIPR). The class given is cell-based. To be noted: HEK 293 cell stably expressing human CaSR; 0.5 mM Ca2+; 2 mM Ca2+ group = 100%; read-out: EC50 (compound concentration showing 50% human CaSR agonistic activity). From the text:
Test 1. Human calcium sensing receptor (CaSR) agonism test
1) Preparation of Human CaSR Expression Vector
A DNA fragment coding for human CaSR was cloned in the standard method.
Illustratively, using 203 to 2387 of NM_000388 as a DNA fragment D4, and 2210 to 3633 as a DNA fragment B2, they were amplified using a human kidney cDNA (manufactured by Invitrogen) as the template and using a DNA polymerase (a registered trade name: Pyrobest, manufactured by Takara Bio), and respectively cloned into a pCR2.1 vector using a pCR2.1-Topo vector (manufactured by Invitrogen). Next, the DNA fragments prepared by digesting the pCR2.1-D4 with SpeI and XbaI were inserted into the same sites of pcDNA3.1/Zeo(+) vector. Successively, the fragments prepared by digesting pCR2.1-B2 with SacI and XbaI were inserted into the SacI and XbaI sites of previously prepared pcDNA3.1/Zeo(+)-D4(SpeI-XbaI), thereby obtaining a human CaSR expression vector pcDNA3.1/Zeo(+)-hCaSR in which a human CaSR open reading frame (ORF) was contained in the pcDNA3.1/Zeo(+) vector.
2) Preparation of Human CaSR Expression Cell
The human CaSR expression vector was transferred into a HEK 293 cell using a transfection reagent (registered trademark: FuGene 6, manufactured by Roche Diagnostics). After the gene transfer, this was cultured in a DMEM (manufactured by Invitrogen) medium containing 40 μg/ml Zeocin (registered trademark, manufactured by Invitrogen) and a 10% fetal bovine serum at 37° C. for 2 weeks in the presence of 5% CO2, thereby obtaining Zeocin-resistant clones. A human CaSR stably expressing HEK 293 clone was obtained from these clones by selection using the responsiveness to extracellular Ca^2+ as an index.
3) Human CaSR Agonism Test
The HEK 293 cell stably expressing human CaSR was inoculated into a poly-D-lysine-coated black clear bottom 96 well plate (manufactured by BD Biosciences). Hanks' balanced salt solution (HBSS) (Ca^2+ (−), Mg^2+ (−), manufactured by Invitrogen) containing a 20 mM HEPES (2-[4-(2-hydroxyethyl)-1-piperazinyl]ethanesulfonic acid) buffer (pH 7.4), 2.5 mM of probenecid (manufactured by Sigma), and 0.1% of bovine serum albumin was prepared as a washing buffer. After the inoculation and the subsequent overnight culturing, the medium was discarded, the washing buffer supplemented with 1 mM CaCl2 and 10 μM Fluo-3 AM (trade name, manufactured by DOJINDO) was added thereto in 100 μl per well portions, and then the incubation was carried out at 37° C. for 1 hour in the presence of 5% CO2. This was washed twice with 200 μl of the washing buffer, replaced by 100 μl of the washing buffer supplemented with 0.5 mM CaCl2 and allowed to stand still for 10 minutes, and then the responsiveness to each compound to be evaluated was detected using a plate reader for fluorometry image analysis use (registered trademark: FLIPR, manufactured by Molecular Devices). In this connection, the compound to be evaluated was used by optionally diluting with the washing buffer supplemented with 0.5 mM Ca^2+.
The human CaSR agonistic activity strength of each compound to be evaluated was calculated by defining the solvent group as 0% and the 2 mM of Ca^2+ in the final concentration group as 100%, and the compound concentration showing 50% activity (EC50) was calculated from a concentration-activity curve by the method of least squares.

In the next test the target is CYP2D6 (Homo sapiens, UniProt P10635). In words: Human CYP2D6 inhibition test. The class given is biochemical. More on the design: purchased BD Gentest 456217. Particulars: CYP2D6 7.5 pmol/mL; fluorescence substrate AMMC 1.5 μM; 37° C. 30 minutes. On the procedure: Test 3. Human CYP2D6 Inhibition Test
CYP2D6, sequence (P10635 whole entry): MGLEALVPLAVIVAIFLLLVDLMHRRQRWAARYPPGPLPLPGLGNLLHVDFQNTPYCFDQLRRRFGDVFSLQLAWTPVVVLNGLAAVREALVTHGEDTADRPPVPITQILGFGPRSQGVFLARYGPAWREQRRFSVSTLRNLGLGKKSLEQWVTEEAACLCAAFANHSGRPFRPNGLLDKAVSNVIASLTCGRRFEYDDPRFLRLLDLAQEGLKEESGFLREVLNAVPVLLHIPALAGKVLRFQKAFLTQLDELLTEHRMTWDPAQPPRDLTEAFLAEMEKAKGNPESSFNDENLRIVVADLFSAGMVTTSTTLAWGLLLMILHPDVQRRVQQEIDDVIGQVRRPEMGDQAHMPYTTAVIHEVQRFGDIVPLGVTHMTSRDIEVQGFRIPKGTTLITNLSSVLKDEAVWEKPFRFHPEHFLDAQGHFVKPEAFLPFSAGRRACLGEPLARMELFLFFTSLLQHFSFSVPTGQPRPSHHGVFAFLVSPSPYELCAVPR
Inhibitory activity evaluation for CYP2D6 was carried out by measuring it in accordance, roughly, with a reference (“Drug Metabolism and Disposition”, 2001, vol. 29, p. 1196-1200).
Final concentrations of the reagents in the enzyme reaction solution were respectively set to CYP2D6=7.5 pmol/mL (manufactured by BD Gentest, Catalog No. 456217), reduced type nicotinamide adenine dinucleotide phosphate (NADPH) regeneration system (0.0081 mM nicotinamide adenine dinucleotide phosphate (NADP+), 0.41 mM glucose-6-phosphate, 0.41 mM MgCl2, 0.4 units glucose-6-phosphate dehydrogenase), and a fluorescence substrate AMMC=1.5 μM, 100 mM potassium phosphate buffer (pH 7.4). Each compound was made into a 50% acetonitrile solution and added to the enzyme reaction solution (acetonitrile final concentration 2.5%). The enzyme reaction was carried out at 37° C. for 30 minutes, the reaction was stopped using a stopping liquid (0.1 M tris(hydroxymethyl)aminomethane (Tris-base):acetonitrile=20:80), and the fluorescence intensity was then measured. The concentration showing 50% inhibition (IC50) was calculated from the thus obtained fluorescence intensity, by defining the enzyme activity at a time of no compound addition as 100%.

A short description of test [1]: Measurement of rat plasma calcium concentration. To be noted: normal male rats, single oral administration 3 mg/kg, 2 hours after administration, read-out: Rat plasma calcium concentration reducing ratio (%) 2 hours after administration (3 mg/kg). The class given is in vivo. Here is the method:
Test 2. Measurement of Rat Plasma Calcium Concentration and Plasma PTH Concentration
The compounds of the present invention were administered to rats, and their influences upon the plasma calcium concentration and the plasma PTH concentration were examined. The test was carried out by single oral administration of the compounds of the present invention and the control compounds to 5 to 6 normal male rats, or male rats with renal failure, respectively As a vehicle group, 0.5% of a methyl cellulose (MC) solution was administered at a dose of 5 ml/kg. As a reference compound, cinacalcet was dissolved in the MC solution and administered at a dose of 3 mg/kg. Each of the compounds of the present invention was dissolved or suspended in the MC solution, and administered at a dose of 1, 3 or 10 mg/kg.
Blood samples were collected from the orbital venous plexus under ether anesthesia before the administration and 2 hours, 4 hours, or 8 hours in some cases, after the administration, and the plasma calcium concentration was measured using Calcium E-Test Wako (manufactured by Wako Pure Chemical Industries), and the plasma PTH concentration was measured using a Rat Intact PTH ELISA Kit (manufactured by Immutopics).

Structures can show the parent of a compound that is named as a salt.

In the case of `C[C@@H](NCC1CCN(c2c(F)cc(C(=O)O)cc2F)CC1c1ccccc1)c1csc2ccccc12` (some centres unmarked) [Example 87], the EC50 on human CaSR is 11 nM. The compound also showed an IC50 against CYP2D6 of at least 20000 nM.

As to `C[C@@H](NCC1CCN(c2ccc(C(=O)O)cn2)CC1c1ccccc1F)c1cccc2ccccc12` (some centres unmarked) [Example 104], the EC50 at human CaSR amounted to 14 nM.

On to `COc1cccc([C@@H](C)NCC2CCN(c3ncc(C(=O)O)cc3Cl)CC2c2ccccc2)c1` (stereo partly drawn) [Example 33, 5-chloro-6-[4-({[(1R)-1-(3-methoxyphenyl)ethyl]amino}methyl)-3-phenylpiperidin-1-yl]nicotinic acid hydrochloride], for which the EC50 at human CaSR worked out at 20 nM. Further, the inhibition in vivo at 3 mg/kg in test [1] turned out to be 29%.

Consider `C[C@@H](NCC1CCN(c2cccc(C(=O)O)c2)CC1c1ccccc1F)c1cccc2ccccc12` (stereo partly drawn) [Example 35, 3-[3-(2-fluorophenyl)-4-({[(1R)-1-(1-naphthyl)ethyl]amino}methyl)piperidin-1-yl]benzoic acid hydrochloride], for which the EC50 at human CaSR is 7.6 nM. The compound further had an IC50 on CYP2D6 of at least 20000 nM. The inhibition in vivo at 3 mg/kg in test [1] was found to be 33%.

With `C[C@@H](NCC1CCN(c2cccc(C(=O)O)n2)CC1c1ccccc1)c1cccc2ccccc12` (stereo partly drawn) [Example 30, 6-[4-({[(1R)-1-(1-naphthyl)ethyl]amino}methyl)-3-phenylpiperidin-1-yl]pyridine-2-carboxylic acid hydrochloride], the EC50 on human CaSR stood at 5.5 nM. Besides, at CYP2D6, the half-maximal inhibitory concentration (IC50) was at least 20000 nM.

`COc1cc(C(=O)O)ccc1NC(=O)N1CCC(c2ccccc2)C(CN[C@H](C)c2cccc3ccccc23)C1` (stereo partly drawn) [Example 3, 3-methoxy-4-({[3-({[(1R)-1-(1-naphthyl)ethyl]amino}methyl)-4-phenylpiperidin-1-yl]carbonyl}amino)benzoic acid]: the EC50 on human CaSR worked out at 1.8 nM. The compound further returned an IC50 against CYP2D6 of at least 20000 nM.

Regarding `C[C@@H](NCC1CCN(c2nc(C(=O)O)cs2)CC1c1ccccc1)c1cccc2ccccc12` (stereo partly drawn) [Example 39, 2-[4-({[(1R)-1-(1-naphthyl)ethyl]amino}methyl)-3-phenylpiperidin-1-yl]-1,3-thiazole-4-carboxylic acid hydrochloride], the EC50 at human CaSR turned out to be 2.6 nM. In addition, the inhibition in vivo at 3 mg/kg in test [1] is 23%.

As to `C[C@@H](NCC1CN(C(=O)Nc2ccc(C(=O)O)cc2)CCC1c1cccc(F)c1)c1cccc2ccccc12` (stereo partly drawn) [Example 13, 4-({[4-(3-fluorophenyl)-3-({[(1R)-1-(1-naphthyl)ethyl]amino}methyl)piperidin-1-yl]carbonyl}amino)benzoic acid hydrochloride], the EC50 at human CaSR was 2.9 nM. The compound also displayed a 50% inhibitory concentration (IC50) on CYP2D6 of at least 20000 nM.

`C[C@@H](NCC1CCN(c2ncc(C(=O)O)cc2Cl)CC1c1ccccc1F)c1cccc2ccccc12` (stereo partly drawn) [Example 32, 5-chloro-6-[3-(2-fluorophenyl)-4-({[(1R)-1-(1-naphthyl)ethyl]amino}methyl)piperidin-1-yl]nicotinic acid hydrochloride]: the EC50 on human CaSR came to 7.5 nM. For the same compound, the inhibition in vivo at 3 mg/kg in test [1] is 34%.

Turning to `C[C@@H](NCC1CCN(c2cc(C(F)(F)F)c(C(=O)O)cn2)CC1c1cccc(F)c1)c1cccc2ccccc12` (some centres unmarked) [Example 98], on human CaSR, the EC50 came out at 17 nM. The half-maximal inhibitory concentration (IC50) against CYP2D6 is at least 20000 nM.

Consider `C[C@@H](NCC1CCN(c2c(F)cc(-c3nnn[nH]3)cc2F)CC1c1ccccc1)c1cccc2ccccc12` (stereo partly drawn) [Example 53, (1R)—N-({1-[2,6-difluoro-4-(1H-tetrazol-5-yl)phenyl]-3-phenylpiperidin-4-yl}methyl)-1-(1-naphthyl)ethaneamine hydrochloride], for which, on human CaSR, the EC50 is 3.8 nM. Also, in test [1], the inhibition in vivo at 3 mg/kg amounted to 20%.

For the compound `C[C@@H](NCC1CCN(c2ncc(C(=O)O)cc2Cl)CC1c1ccccc1)c1cccc2ccccc12` (stereo partly drawn) [Example 31, 5-chloro-6-[4-({[(1R)-1-(1-naphthyl)ethyl]amino}methyl)-3-phenylpiperidin-1-yl]nicotinic acid hydrochloride], at human CaSR, the EC50 is 5 nM. Further, the inhibition in vivo at 3 mg/kg in test [1] turned out to be 24%.

Regarding `C[C@@H](NCC1CCN(c2cccc(C(=O)O)c2)CC1c1ccccc1)c1cccc2ccccc12` (stereo partly drawn) [Example 34, 3-[4-({[(1R)-1-(1-naphthyl)ethyl]amino}methyl)-3-phenylpiperidin-1-yl]benzoic acid hydrochloride], the EC50 on human CaSR came to 8.1 nM. The compound also had a 50% inhibitory concentration (IC50) against CYP2D6 of at least 20000 nM.
